Among the data in the Kinase Knowledgebase extract (Sharma et al. 2016) are IC50 values, retold here.

Structures are written as SMILES.

EGFR, sequence (P00533 whole entry, looked up): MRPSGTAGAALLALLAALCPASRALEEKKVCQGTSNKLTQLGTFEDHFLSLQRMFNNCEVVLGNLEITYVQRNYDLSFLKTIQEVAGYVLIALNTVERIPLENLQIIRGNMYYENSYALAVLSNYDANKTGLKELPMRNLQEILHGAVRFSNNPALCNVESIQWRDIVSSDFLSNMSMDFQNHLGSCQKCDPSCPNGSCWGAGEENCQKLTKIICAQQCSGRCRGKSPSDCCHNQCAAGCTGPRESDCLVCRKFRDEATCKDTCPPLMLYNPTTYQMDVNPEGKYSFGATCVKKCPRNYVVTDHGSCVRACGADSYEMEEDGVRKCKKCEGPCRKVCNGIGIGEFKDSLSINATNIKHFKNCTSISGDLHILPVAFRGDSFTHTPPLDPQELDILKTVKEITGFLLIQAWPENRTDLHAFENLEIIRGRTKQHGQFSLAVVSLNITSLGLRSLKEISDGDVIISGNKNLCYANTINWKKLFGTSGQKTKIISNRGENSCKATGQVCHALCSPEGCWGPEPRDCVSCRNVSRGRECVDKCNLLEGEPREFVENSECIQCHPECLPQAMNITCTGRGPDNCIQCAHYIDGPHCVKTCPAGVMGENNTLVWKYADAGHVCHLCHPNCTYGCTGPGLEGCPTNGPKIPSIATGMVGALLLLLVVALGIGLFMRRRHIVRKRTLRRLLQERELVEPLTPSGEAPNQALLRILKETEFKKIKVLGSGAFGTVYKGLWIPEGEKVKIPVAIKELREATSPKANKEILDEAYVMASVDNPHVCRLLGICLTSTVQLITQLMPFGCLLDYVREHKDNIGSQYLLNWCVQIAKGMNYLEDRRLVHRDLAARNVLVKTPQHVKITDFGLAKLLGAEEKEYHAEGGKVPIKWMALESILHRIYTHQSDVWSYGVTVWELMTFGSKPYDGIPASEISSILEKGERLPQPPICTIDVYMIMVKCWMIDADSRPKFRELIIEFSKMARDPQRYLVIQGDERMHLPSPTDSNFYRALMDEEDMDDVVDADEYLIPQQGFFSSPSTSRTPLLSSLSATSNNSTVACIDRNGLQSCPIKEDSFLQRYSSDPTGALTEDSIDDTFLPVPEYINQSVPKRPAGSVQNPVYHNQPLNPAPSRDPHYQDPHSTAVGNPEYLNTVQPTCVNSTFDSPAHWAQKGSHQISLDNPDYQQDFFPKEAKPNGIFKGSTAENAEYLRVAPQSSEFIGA

The first assay has as its target EGFR (UniProt P00533).
Details: not given
As to `COc1cc(/C=C(\C#N)C(=O)c2ccc(C)cc2)cc(CSCc2ccccc2)c1O`, the IC50 (in general, the midpoint of a concentration-inhibition curve) turned out to be 4.5 µM. This lies in the single-digit micromolar range.

For another assay, the target named is EGFR (human) (UniProt P00533). The settings on record: her 14.
EGFR (human), sequence (P00533 whole entry, looked up): as above
Consider `COc1cc(C=C(C#N)C#N)cc(CSc2ccccc2C(=O)O)c1O`, for which the IC50 was above 50 µM. Same read-out and setting: the figure for `COc1cc(/C=C(\C#N)C(N)=O)cc(CSCc2ccccc2Cl)c1O` is 10 µM; for `COc1cc(C=C(C#N)C#N)cc(CSCC(=O)O)c1O` it is above 50 µM; for `COc1cc(/C=C(\C#N)C(N)=O)cc(CSc2ccc3ccccc3c2)c1O` it is 10 µM. In turn, `N#C/C(=C\c1cc(O)c(O)c(CSc2nc3ccccc3s2)c1)C(N)=O` returned an IC50 above 50 µM. On the same count and under the same terms, the figure for `COc1cc(/C=C(\C#N)C(N)=O)cc(CSc2ccccc2NC(C)=O)c1O` is 9 µM; for `COc1cc(/C=C(\C#N)C(N)=O)cc(CSc2nc3ccccc3o2)c1O` it is 6 µM. Same read-out and setting: the figure for `COc1cc(C=C(C#N)C#N)cc(CSc2ccccc2)c1O` is 6 µM; for `Cc1cc(C=C(C#N)C#N)cc(O)c1O` it is 13 µM. The molecule `COc1cc(C=C(C#N)C#N)cc(CS(=O)(=O)c2ccc(C)cc2)c1O` had a concentration for half-maximal inhibition (IC50) of 15 µM. On the same count and under the same terms, the figure for `COc1cc(/C=C(\C#N)C(N)=O)cc(CSc2ccccc2)c1O` is 12.5 µM; for `COc1cc(/C=C(\C#N)C(=O)c2ccc(O)c(O)c2)cc(CSCc2ccccc2)c1O` it is 2 µM.

Consider `COc1cc(/C=C(\C#N)C(N)=O)cc(CSc2ccccc2C(=O)O)c1O`, for which the IC50 is above 50 µM. For `COc1cc(/C=C(\C#N)C(N)=O)cc(CSc2nc3ccccc3[nH]2)c1O`, the IC50 was determined as 35 µM.

In turn, `COc1cc(/C=C(\C#N)C(N)=O)cc(CSCc2ccccc2)c1O` showed an IC50 of 12.5 µM. The same measure, in the same setting: the figure for `COc1cc(/C=C(\C#N)C(N)=O)cc(CSCc2ccc(Cl)cc2)c1O` is 20 µM; for `COc1cc(/C=C(\C#N)C(N)=O)cc(CSc2ccccn2)c1O` it is 16 µM.

On to `COc1cc(/C=C(\C#N)C(N)=O)cc(CSc2ccc(O)cc2)c1O`, for which the IC50 worked out at 2 µM. Take `N#C/C(=C\c1cc(O)c(O)c(CSCc2ccccc2)c1)C(N)=O`: the IC50 was 3 µM.
